The text below walks through data of patent US10738057B2, “Tertiary alcohols as PI3K-γ inhibitors” (Incyte Corporation, priority 2017, dated 2020).

pIC50: −log10 of the molar value. Structures can show the parent of a compound that is named as a salt.

Test [1] deals with PI3Kδ (p110δ/p85α) Recombinant Human Protein (Homo sapiens (Human), UniProt O00329). Description: PI3Kδ scintillation proximity assay. The class given is biochemical. As to conditions: 20 μM PIP2, 2 μM ATP, 3.4 nM PI3Kδ, 120 min, room temperature; read-out: PI3Kδ IC50. The method, boiled down:
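Recombinant human p110δ/p85α was run at room temperature in 20 mM MOPS pH 6.7, 10 mM MgCl2, 5 mM DTT, 0.03% CHAPS, 2% DMSO. Substrates were 20 µM PIP2 and 2 µM ATP with [γ-33P]ATP. Product was captured overnight on WGA SPA beads and counted by scintillation; IC50 fitted from percent of solvent control versus log concentration.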
Background: In a scintillation proximity assay essentially only radioactivity close to the scintillant gives light.

The test system of test [2] is Phosphorylated Ribosomal Protein S6 (RPS6) in THP-1 cells. Description: THP-1 RPS6 ELISA assay. As to conditions: Homo sapiens, THP-1, THP-1 cells, serum starved, 2 h compound, 10 nM MCP-1 for 15 min, phospho-RPS6 ELISA; read-out: PI3Kγ_THP1_RPS6_ELISA IC50. Format: cell-based, Human. The method, boiled down:
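Serum-starved THP-1 cells (2×10^5/well, RPMI) preincubated with compound 2 h at 37° C, then stimulated with 10 nM MCP-1 for 15 min. Lysates assayed by phospho-RPS6 ELISA, absorbance 450 nm (540 nm correction); IC50 from percent inhibition versus log concentration.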
A general note: In an ELISA, binding on a coated surface is turned into a signal by an enzyme label.

Test [3] addresses PI3Kγ (p110γ) Recombinant Human Protein (Homo sapiens (Human), UniProt P48736). Description: PI3K-γ scintillation proximity assay. The class given is biochemical. Conditions: 20 μM PIP2, 2 μM ATP, 13 nM PI3Kγ, 120 min, room temperature. An outline of the steps:
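Radiometric SPA in 20 mM MOPS pH 6.7, 10 mM MgCl2, 5 mM DTT, 0.03% CHAPS, 2% DMSO. Stopped with EDTA and WGA SPA beads for scintillation counting. IC50 fitted from % solvent-control activity versus log concentration.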

Chain of PI3Kδ (p110δ/p85α) Recombinant Human Protein (O00329 whole entry): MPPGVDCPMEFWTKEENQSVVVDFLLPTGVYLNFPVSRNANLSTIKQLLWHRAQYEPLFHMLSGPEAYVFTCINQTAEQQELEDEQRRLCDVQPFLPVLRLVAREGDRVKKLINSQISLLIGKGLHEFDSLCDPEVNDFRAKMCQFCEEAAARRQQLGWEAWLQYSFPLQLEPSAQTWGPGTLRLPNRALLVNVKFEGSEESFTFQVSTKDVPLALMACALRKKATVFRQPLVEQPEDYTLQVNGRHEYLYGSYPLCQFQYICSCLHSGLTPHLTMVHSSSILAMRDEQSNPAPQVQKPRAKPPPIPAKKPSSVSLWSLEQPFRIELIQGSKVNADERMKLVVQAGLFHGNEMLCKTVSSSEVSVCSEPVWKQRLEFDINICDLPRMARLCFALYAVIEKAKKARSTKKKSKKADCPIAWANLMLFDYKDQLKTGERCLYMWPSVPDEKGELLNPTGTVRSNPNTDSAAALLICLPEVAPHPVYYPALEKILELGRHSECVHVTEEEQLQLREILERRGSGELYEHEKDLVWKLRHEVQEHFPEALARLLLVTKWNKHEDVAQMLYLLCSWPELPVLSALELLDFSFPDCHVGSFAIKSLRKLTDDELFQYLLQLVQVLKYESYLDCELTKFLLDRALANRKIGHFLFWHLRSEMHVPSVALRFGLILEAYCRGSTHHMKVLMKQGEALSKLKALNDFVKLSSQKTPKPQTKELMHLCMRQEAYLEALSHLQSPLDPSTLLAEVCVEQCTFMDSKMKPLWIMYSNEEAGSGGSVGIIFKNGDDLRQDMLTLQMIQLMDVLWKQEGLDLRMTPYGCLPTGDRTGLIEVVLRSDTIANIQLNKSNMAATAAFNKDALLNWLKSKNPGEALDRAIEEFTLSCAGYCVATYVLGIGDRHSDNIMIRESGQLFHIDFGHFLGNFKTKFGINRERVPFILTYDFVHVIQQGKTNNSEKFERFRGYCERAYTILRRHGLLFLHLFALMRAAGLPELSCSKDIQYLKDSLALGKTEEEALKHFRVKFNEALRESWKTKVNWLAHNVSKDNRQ
Chain of PI3Kδ (p110δ/p85α) Recombinant Human Protein (P27986 whole entry partner): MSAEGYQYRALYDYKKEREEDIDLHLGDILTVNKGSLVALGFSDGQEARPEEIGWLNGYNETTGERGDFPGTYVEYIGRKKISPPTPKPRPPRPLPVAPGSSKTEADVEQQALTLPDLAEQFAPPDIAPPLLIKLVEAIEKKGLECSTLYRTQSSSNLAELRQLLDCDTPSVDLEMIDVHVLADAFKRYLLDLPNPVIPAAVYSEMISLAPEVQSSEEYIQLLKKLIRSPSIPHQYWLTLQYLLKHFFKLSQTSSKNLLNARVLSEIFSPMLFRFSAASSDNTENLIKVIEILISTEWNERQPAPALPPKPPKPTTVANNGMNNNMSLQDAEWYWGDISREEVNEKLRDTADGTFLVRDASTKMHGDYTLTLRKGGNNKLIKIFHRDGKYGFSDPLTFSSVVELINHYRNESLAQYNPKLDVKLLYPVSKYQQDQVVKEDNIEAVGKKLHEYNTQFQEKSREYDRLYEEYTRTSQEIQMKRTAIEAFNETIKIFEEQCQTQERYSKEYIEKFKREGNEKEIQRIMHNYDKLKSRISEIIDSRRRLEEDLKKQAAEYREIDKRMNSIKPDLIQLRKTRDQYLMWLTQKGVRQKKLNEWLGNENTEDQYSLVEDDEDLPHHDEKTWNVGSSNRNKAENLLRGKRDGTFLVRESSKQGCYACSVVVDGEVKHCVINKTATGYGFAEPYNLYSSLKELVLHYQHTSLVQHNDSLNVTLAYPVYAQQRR
Chain of PI3Kγ (p110γ) Recombinant Human Protein (P48736 whole entry): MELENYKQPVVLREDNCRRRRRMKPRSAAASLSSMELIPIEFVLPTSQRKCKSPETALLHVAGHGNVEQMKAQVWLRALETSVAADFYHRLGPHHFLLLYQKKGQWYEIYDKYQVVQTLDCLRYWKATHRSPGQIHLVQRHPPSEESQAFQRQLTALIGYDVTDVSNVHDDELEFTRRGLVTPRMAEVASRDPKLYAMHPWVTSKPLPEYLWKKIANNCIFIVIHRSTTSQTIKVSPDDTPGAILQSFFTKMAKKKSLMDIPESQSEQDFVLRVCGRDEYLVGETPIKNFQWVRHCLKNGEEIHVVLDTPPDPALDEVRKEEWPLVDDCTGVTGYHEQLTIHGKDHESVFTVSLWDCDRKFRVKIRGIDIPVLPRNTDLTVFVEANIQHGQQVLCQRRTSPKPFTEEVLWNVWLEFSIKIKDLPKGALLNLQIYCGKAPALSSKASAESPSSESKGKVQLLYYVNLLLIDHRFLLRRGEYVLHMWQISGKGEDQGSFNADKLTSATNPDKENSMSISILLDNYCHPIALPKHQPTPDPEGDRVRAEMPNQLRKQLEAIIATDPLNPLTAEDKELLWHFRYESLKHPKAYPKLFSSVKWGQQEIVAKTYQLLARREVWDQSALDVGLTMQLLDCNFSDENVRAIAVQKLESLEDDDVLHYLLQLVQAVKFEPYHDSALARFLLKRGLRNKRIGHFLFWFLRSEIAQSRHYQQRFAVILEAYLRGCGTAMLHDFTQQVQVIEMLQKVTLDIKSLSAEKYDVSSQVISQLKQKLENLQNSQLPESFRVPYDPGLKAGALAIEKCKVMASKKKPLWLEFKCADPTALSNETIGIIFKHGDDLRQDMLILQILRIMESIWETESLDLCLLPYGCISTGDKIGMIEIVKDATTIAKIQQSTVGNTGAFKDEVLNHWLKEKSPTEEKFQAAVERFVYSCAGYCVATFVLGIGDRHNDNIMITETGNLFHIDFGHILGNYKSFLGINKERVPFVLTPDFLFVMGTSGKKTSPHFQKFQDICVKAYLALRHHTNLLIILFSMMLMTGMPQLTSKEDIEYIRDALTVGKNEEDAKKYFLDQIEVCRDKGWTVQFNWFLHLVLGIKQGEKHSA

In the case of `Cc1ccc(C(C)(O)C(F)F)cc1-c1cnc2c(N)nc(C3CC3C(=O)NC(C)(C)CO)cn12` (stereo not drawn) [Example 78, 2-(8-Amino-3-(5-(1,1-difluoro-2-hydroxypropan-2-yl)-2-methylphenyl)imidazo[1,2-a]pyrazin-6-yl)-N-(1-hydroxy-2-methylpropan-2-yl)cyclopropane-1-carboxamide], the pIC50 was 6.30 to 7.00 in test [1], 6.30 to 7.00 in test [2] and greater than 7.00 in test [3].

On to `[2H]C([2H])([2H])c1ccc(C(C)(O)C(F)(F)F)cc1-c1cnc2c(N)nc(C(=O)NCC(C)(C)O)cn12` (stereo not drawn) [Example 81, 8-Amino-N-(2-hydroxy-2-methylpropyl)-3-(2-(methyl-d3)-5-(1,1,1-trifluoro-2-hydroxypropan-2-yl)phenyl)imidazo[1,2-a]pyrazine-6-carboxamide], for which the pIC50 in test [1] was greater than 7.00; in test [2] it was 6.30 to 7.00; in test [3], greater than 7.00.

With `Cc1ccc(C(O)(C(N)=O)C(F)(F)F)cc1-c1cnc2c(N)nc(C(F)(F)F)cn12` (stereo not drawn) [Example 82, 2-(3-(8-Amino-6-(trifluoromethyl)imidazo[1,2-a]pyrazin-3-yl)-4-methylphenyl)-3,3,3-trifluoro-2-hydroxypropanamide], the pIC50 in test [1], in test [2] and in test [3] was greater than 7.00 each time.

For the molecule `Cc1ccc(C(O)(C(N)=O)C(F)(F)F)cc1-c1cnc2c(N)nc(C(=O)NC3(C4CC4)CCOC3)cn12` (stereo not drawn) [Example 83, 8-Amino-3-(5-(3-amino-1,1,1-trifluoro-2-hydroxy-3-oxopropan-2-yl)-2-methylphenyl)-N-(3-cyclopropyltetrahydrofuran-3-yl)imidazo[1,2-a]pyrazine-6-carboxamide trifluoroacetate salt], the pIC50 in test [1] was 6.30 to 7.00; in test [2], greater than 7.00; in test [3], greater than 7.00.

As to `Cc1ccc(C(O)(C(N)=O)C(F)(F)F)cc1-c1cnc2c(N)nc(C(=O)NC3(C)CCOC3C)cn12` (stereo not drawn) [Example 84, 8-Amino-3-(5-(3-amino-1,1,1-trifluoro-2-hydroxy-3-oxopropan-2-yl)-2-methylphenyl)-N-(2,3-dimethyltetrahydrofuran-3-yl)imidazo[1,2-a]pyrazine-6-carboxamide, trifluoroacetate], the figures for the pIC50 in test [1], in test [2] and in test [3] were 6.30 to 7.00, 6.30 to 7.00 and greater than 7.00, respectively.

As to `Cc1ccc(C(O)(C(N)=O)C(F)(F)F)cc1-c1cnc2c(N)nc(C(=O)NC3(C(F)(F)F)CCOCC3)cn12` (stereo not drawn) [Example 85, 8-Amino-3-(5-(3-amino-1,1,1-trifluoro-2-hydroxy-3-oxopropan-2-yl)-2-methylphenyl)-N-(4-(trifluoromethyl)tetrahydro-2H-pyran-4-yl)imidazo[1,2-a]pyrazine-6-carboxamide, trifluoroacetate], the pIC50 was 5.70 to 6.30 in test [1], 6.30 to 7.00 in test [2] and greater than 7.00 in test [3].

As to `[2H]C([2H])([2H])c1ccc(C(C)(O)C(F)(F)F)cc1-c1cnc2c(N)nc(-c3cnn(C(CC#N)C4CCC4)c3)cn12` (stereo not drawn) [Example 86, 3-(4-(8-Amino-3-(2-(methyl-d3)-5-(1,1,1-trifluoro-2-hydroxypropan-2-yl)phenyl)imidazo[1,2-a]pyrazin-6-yl)-1H-pyrazol-1-yl)-3-cyclobutylpropanenitrile, trifluoroacetate], the pIC50 in test [1] is 6.30 to 7.00; in test [2], 6.30 to 7.00; in test [3], greater than 7.00.

`[2H]C([2H])([2H])c1ccc(C(C)(O)C(F)(F)F)cc1-c1cnc2c(N)nc(-c3cnn4c3CCC4)cn12` (stereo not drawn) [Example 87, 2-(3-(8-Amino-6-(5,6-dihydro-4H-pyrrolo[1,2-b]pyrazol-3-yl)imidazo[1,2-a]pyrazin-3-yl)-4-(methyl-d3)phenyl)-1,1,1-trifluoropropan-2-ol, trifluoroacetate]: the pIC50 in test [1] was greater than 7.00; in test [2] it was 6.30 to 7.00; in test [3] it was greater than 7.00.

For `[2H]C([2H])([2H])c1ccc(C(C)(O)C(F)(F)F)cc1-c1cnc2c(N)nc(-c3cnn(C4(CC#N)CC(C(=O)OC)C4)c3)cn12` (stereo not drawn) [Example 88, Methyl 3-(4-(8-amino-3-(2-(methyl-d3)-5-(1,1,1-trifluoro-2-hydroxypropan-2-yl)phenyl)imidazo[1,2-a]pyrazin-6-yl)-1H-pyrazol-1-yl)-3-(cyanomethyl)cyclobutane-1-carboxylate, trifluoroacetate], the pIC50 was 6.30 to 7.00 in test [1], 6.30 to 7.00 in test [2] and greater than 7.00 in test [3].

As to `Cc1ccc(C(O)(C(N)=O)C(F)F)cc1-c1cnc2c(N)nc(C(F)(F)F)cn12` (stereo not drawn) [Example 89, 2-(3-(8-Amino-6-(trifluoromethyl)imidazo[1,2-a]pyrazin-3-yl)-4-methylphenyl)-3,3-difluoro-2-hydroxypropanamide], the pIC50 in test [1], in test [2] and in test [3] was greater than 7.00 throughout.

As to `Cc1ccc(C(C)(O)C(F)F)cc1-c1cnc2c(N)nc(-c3cnn(C4(CC#N)CN(C(=O)C5CCC5)C4)c3)cn12` (stereo not drawn) [Example 100, 2-(3-(4-(8-amino-3-(5-(1,1-difluoro-2-hydroxypropan-2-yl)-2-methylphenyl)imidazo[1,2-a]pyrazin-6-yl)-1H-pyrazol-1-yl)-1-(cyclobutanecarbonyl)azetidin-3-yl)acetonitrile], the pIC50 was 6.30 to 7.00 in test [1], 6.30 to 7.00 in test [2] and greater than 7.00 in test [3].

With `Cc1ccc(C(C)(O)C(F)F)cc1-c1cnc2c(N)nc(-c3cncc(S(C)(=O)=O)c3)cn12` (stereo not drawn) [Example 106, 2-(3-(8-Amino-6-(5-(methylsulfonyl)pyridin-3-yl)imidazo[1,2-a]pyrazin-3-yl)-4-methylphenyl)-1,1-difluoropropan-2-ol], the figures for the pIC50 in test [1], in test [2] and in test [3] were 6.30 to 7.00, 6.30 to 7.00 and greater than 7.00, respectively.

Consider `Cc1ccc(C(C)(O)C(F)F)cc1-c1cnc2c(N)nc(-c3ccc(B(O)O)cc3)cn12` (stereo not drawn) [Example 108, (4-(8-amino-3-(5-(1,1-difluoro-2-hydroxypropan-2-yl)-2-methylphenyl)imidazo[1,2-a]pyrazin-6-yl)phenyl)boronic acid trifluoroacetate salt], for which the pIC50 in test [1], in test [2] and in test [3] was greater than 7.00 throughout.

Take `Cc1nc(N)c2ncc(-c3cc(C(O)(C(F)F)C(F)F)ccc3C)n2n1` [Example 112, 2-(3-(4-Amino-2-methylimidazo[2,1-f][1,2,4]triazin-7-yl)-4-methylphenyl)-1,1,3,3-tetrafluoropropan-2-ol trifluoroacetate salt]: the pIC50 in test [1] was 5.70 to 6.30; in test [2], 6.00 to 6.30; in test [3] it was greater than 7.00.

`CNC(=O)C(O)(c1ccc(C)c(-c2cnc3c(N)nc(C(F)(F)F)cn23)c1)C(F)(F)F` (stereo not drawn) [Example 118, 2-(3-(8-Amino-6-(trifluoromethyl)imidazo[1,2-a]pyrazin-3-yl)-4-methylphenyl)-3,3,3-trifluoro-2-hydroxy-N-methylpropanamide]: the pIC50 in test [1], in test [2] and in test [3] was greater than 7.00 throughout.

Consider `Cc1ccc(C(O)(C(=O)O)C(F)(F)F)cc1-c1cnc2c(N)nc(C(F)(F)F)cn12` (stereo not drawn) [Example 120, 2-(3-(8-amino-6-(trifluoromethyl)imidazo[1,2-a]pyrazin-3-yl)-4-methylphenyl)-3,3,3-trifluoro-2-hydroxypropanoic acid], for which the values for the pIC50 in test [1], in test [2] and in test [3] were 6.30 to 7.00, less than 6.00 and greater than 7.00, respectively.

For the molecule `Cc1ccc(C(O)(C(=O)NC2(C)CNC2)C(F)(F)F)cc1-c1cnc2c(N)nc(C(F)(F)F)cn12` (stereo not drawn) [Example 128, 2-(3-(8-Amino-6-(trifluoromethyl)imidazo[1,2-a]pyrazin-3-yl)-4-methylphenyl)-3,3,3-trifluoro-2-hydroxy-N-(3-methylazetidin-3-yl)propanamide trifluoroacetate salt], the pIC50 in test [1], in test [2] and in test [3] was greater than 7.00 throughout.

Take `Cc1ccc(C(O)(C(=O)NC23CC(C2)C3)C(F)(F)F)cc1-c1cnc2c(N)nc(C(F)(F)F)cn12` (stereo not drawn) [Example 129, 2-(3-(8-Amino-6-(trifluoromethyl)imidazo[1,2-a]pyrazin-3-yl)-4-methylphenyl)-N-(bicyclo[1.1.1]pentan-1-yl)-3,3,3-trifluoro-2-hydroxypropanamide trifluoroacetate salt]: the pIC50 in test [1], in test [2] and in test [3] was greater than 7.00 each time.

On to `Cc1ccc(C(C)(O)C(F)(F)F)cc1-c1cnc2c(N)nc(C#CC3CC3)cn12` (stereo not drawn) [Example 162, 2-(3-(8-Amino-6-(cyclopropylethynyl)imidazo[1,2-a]pyrazin-3-yl)-4-methylphenyl)-1,1,1-trifluoropropan-2-ol trifluoroacetate salt], for which the pIC50 is 6.30 to 7.00 in test [1], 6.30 to 7.00 in test [2] and greater than 7.00 in test [3].

The term pIC50 denotes −log10 of the IC50, conventionally taken in molar units.
